Data published in patent US7858621B2 (Amorepacific Corporation, priority 2006, dated 2010).

Biological target: T1, vanilloid receptor (Rattus norvegicus, UniProt O35433)
T1 construct: DRG nerve cells from the primary culture of 2 days were equilibrated; endogenous in cells; host or cells: primary culture of dorsal root ganglion neurons from neonatal SD rats
Assay: 45Ca influx test in cultured neonatal rat DRG neurons, inhibition of capsaicin response
Format: cell-based
Settings: neonatal rat DRG neurons, capsaicin 0.5 μM, 45Ca influx; read-out: Antagonist Calcium Uptake Test (IC50)
Procedure: 1) Separation of Spinal Dorsal Root Ganglia (DRG) in Newborn Rats and Primary Culture Thereof
Neonatal (2-3 day old or younger than 2-3 day old) SD rats were put in ice for 5 minutes to anesthetize and disinfected with 70% ethanol. […] The DRG were incubated sequentially at 37° C. for 30 mins in 200 U/ml collagenase and 2.5 mg/ml trypsin, separately. The ganglia were washed twice with DME/F12 medium supplemented with 10% horse serum, triturated through a fire-polished Pasteur pipette, filtered through Nitex 80 membrane to obtain single cell suspension and the suspension was washed once more. This was subjected to centrifugation, then resuspended in cell culture medium at certain level of cell density. As the cell culture medium, DME/F12 medium supplemented with 10% horse serum was diluted with identical medium conditioned by C6 glioma cells 2 days on a confluent monolayer (1:1), and NGF (Nerve Growth Factor) was added to adjust 200 ng/ml as final concentration. After the cells were grown 2 days in medium where cytosine arabinoside (Ara-C, 100 μM) was added to kill dividing nonneuronal cells, medium was changed to one without Ara-C. The resuspended cells were plated at a density of 1500-2000 neurons/well onto Terasaki plates previously coated with 10 μg/ml poly-D-ornithine.
2) ^45Ca Influx Experiments
DRG nerve cells from the primary culture of 2 days were equilibrated by washing 4 times with HEPES (10 mM, pH 7.4)-buffered Ca^2+, Mg^2+-free HBSS (H-HBSS). The solution in each well was removed from the individual well. Medium containing the test compound plus capsaicin (final concentration 0.5 μM) and ^45Ca (final concentration 10 μCi/ml) in H-HBSS was added to each well and incubated at room temperature for 10 mins. Terasaki plates were washed five times with H-HBSS and dried at room temperature. To each well, 0.3% SDS (10 μl) was added to elute ^45Ca. After the addition of scintillation cocktail of into each well, the amount of ^45Ca influx into neuron was measured by counting radioactivity.

T1 sequence (O35433 whole entry): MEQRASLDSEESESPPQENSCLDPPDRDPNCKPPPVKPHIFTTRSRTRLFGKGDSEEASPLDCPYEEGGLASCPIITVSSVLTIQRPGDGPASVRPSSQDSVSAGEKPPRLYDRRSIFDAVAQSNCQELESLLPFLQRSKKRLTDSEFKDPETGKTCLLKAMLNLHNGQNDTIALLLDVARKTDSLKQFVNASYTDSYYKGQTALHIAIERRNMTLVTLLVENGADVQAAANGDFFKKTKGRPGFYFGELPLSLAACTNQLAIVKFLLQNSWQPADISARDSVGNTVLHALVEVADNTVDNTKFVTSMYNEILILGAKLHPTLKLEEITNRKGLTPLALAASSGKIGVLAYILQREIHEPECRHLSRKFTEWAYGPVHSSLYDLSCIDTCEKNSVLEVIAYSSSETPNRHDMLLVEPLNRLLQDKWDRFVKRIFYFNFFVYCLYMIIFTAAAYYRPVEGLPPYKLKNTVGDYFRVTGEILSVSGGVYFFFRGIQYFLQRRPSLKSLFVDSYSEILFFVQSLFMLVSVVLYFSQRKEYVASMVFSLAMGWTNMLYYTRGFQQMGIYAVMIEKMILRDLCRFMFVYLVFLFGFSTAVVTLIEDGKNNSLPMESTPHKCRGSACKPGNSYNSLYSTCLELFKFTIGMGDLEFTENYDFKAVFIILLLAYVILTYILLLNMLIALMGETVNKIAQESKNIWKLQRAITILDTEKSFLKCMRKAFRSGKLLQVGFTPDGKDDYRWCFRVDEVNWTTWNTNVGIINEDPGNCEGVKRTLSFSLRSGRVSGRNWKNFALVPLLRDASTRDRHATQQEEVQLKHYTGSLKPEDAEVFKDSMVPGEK

Compound	IC50 [nM]
C#Cc1cc(CNC(=O)/C=C/c2ccc(Br)nc2)cc(F)c1NS(C)(=O)=O [Example 15, 3-(6-Bromo-pyridin-3-yl)-N-(3-ethynyl-5-fluoro-4-methanesulfonylamino-benzyl)-acrylamide]	5900
CCCCOc1nc(C(F)(F)F)ccc1/C=C/C(=O)N[C@H](C)c1ccc(NS(C)(=O)=O)c(F)c1 [Example 169, (R)-3-(2-Butoxy-6-trifluoromethyl-pyridin-3-yl)-N-[1-(3-fluoro-4-methanesulfonylamino-phenyl)-ethyl]-acrylamide]	170
COCCCc1nc(C(F)(F)F)ccc1/C=C/C(=O)NCc1ccc(NS(C)(=O)=O)c(F)c1 [Example 156, N-(3-Fluoro-4-methanesulfonylamino-benzyl)-3-[2-(3-methoxy-propyl)-6-trifluoromethyl-pyridin-3-yl]-acrylamide]	2200
C#Cc1cc(CNC(=O)/C=C/c2ccc(C(F)(F)F)nc2-c2cccnc2)cc(F)c1NS(C)(=O)=O [Example 126, N-(3-Ethynyl-5-fluoro-4-methanesulfonylamino-benzyl)-3-(2-pyridin-3-yl-6-trifluoromethyl-pyridin-3-yl)-acrylamide]	4900
C#Cc1cc(CNC(=O)/C=C/c2cccnc2N2CCOCC2)cc(F)c1NS(C)(=O)=O [Example 49, N-(3-Ethynyl-5-fluoro-4-methanesulfonylamino-benzyl)-3-(2-morpholin-4-yl-pyridin-3-yl)-acrylamide]	5400
C#Cc1cc(CNC(=O)/C=C/c2ccc(C(F)(F)F)nc2OC(C)CC)cc(F)c1NS(C)(=O)=O (centres unmarked) [Example 77, 3-(2-sec-Butoxy-6-trifluoromethyl-pyridin-3-yl)-N-(3-ethynyl-5-fluoro-4-methanesulfonylamino-benzyl)-acrylamide]	340
COCCOc1nc(C(F)(F)F)ccc1/C=C/C(=O)NCc1cc(F)c(NS(C)(=O)=O)c(C#N)c1 [Example 99, N-(3-Cyano-5-fluoro-4-methanesulfonylamino-benzyl)-3-[2-(2-methoxy-ethoxy)-6-trifluoromethyl-pyridin-3-yl]-acrylamide]	1800
CS(=O)(=O)Nc1ccc(CNC(=O)/C=C/c2ccc(C(F)(F)F)nc2Cl)cc1F [Example 44, 3-(2-Chloro-6-trifluoromethyl-pyridin-3-yl)-N-(3-fluoro-4-methanesulfonylamino-benzyl)-acrylamide]	> 10000
COCC#Cc1nc(C(F)(F)F)ccc1/C=C/C(=O)NCc1ccc(NS(C)(=O)=O)c(F)c1 [Example 154, N-(3-Fluoro-4-methanesulfonylamino-benzyl)-3-[2-(3-methoxy-prop-1-ynyl)-6-trifluoromethyl-pyridin-3-yl]-acrylamide]	2100
CCCCc1nc(C(F)(F)F)ccc1C#CC(=O)NCc1ccc(NS(C)(=O)=O)cc1Cl [Example 263, 3-(2-Butyl-6-trifluoromethyl-pyridin-3-yl)-propynoic acid 2-chloro-4-methanesulfonylamino-benzylamide]	4700
C#Cc1cc(CNC(=O)/C=C/c2ccc(C(F)(F)F)nc2Cl)cc(F)c1NS(C)(=O)=O [Example 40, 3-(2-Chloro-6-trifluoromethyl-pyridin-3-yl)-N-(3-ethynyl-5-fluoro-4-methanesulfonylamino-benzyl)-acrylamide]	980
CCCCOc1nc(C(F)(F)F)ccc1/C=C/C(=O)NCc1ccc(NS(C)(=O)=O)c(C)c1 [Example 170, 3-(2-Butoxy-6-trifluoromethyl-pyridin-3-yl)-N-(4-methanesulfonylamino-3-methyl-benzyl)-acrylamide]	340
Cc1nc(C(F)(F)F)ccc1/C=C/C(=O)NCc1ccc(NS(C)(=O)=O)c(F)c1 [Example 69, N-(3-Fluoro-4-methanesulfonylaminobenzyl)-3-(2-methyl-6-trifluoromethylpyridin-3-yl)acrylamide]	3200

More lines, in order of falling IC50, values ahead:

IC50 [nM]	Compound
550	C#Cc1cc(CNC(=O)/C=C/c2ccc(C(F)(F)F)nc2COCC)cc(F)c1NS(C)(=O)=O [Example 161, N-(3-Ethynyl-5-fluoro-4-methanesulfonylamino-benzyl)-3-(2-ethoxymethyl-6-trifluoromethyl-pyridin-3-yl)-acrylamide]
290	CS(=O)(=O)Nc1c(F)cc(CNC(=O)/C=C/c2ccc(C(F)(F)F)nc2N2CCCC2)cc1C#N [Example 97, N-(3-Cyano-5-fluoro-4-methanesulfonylamino-benzyl)-3-(2-pyrrolidin-1-yl-6-trifluoromethyl-pyridin-3-yl)-acrylamide]
280	C#Cc1cc(CNC(=O)/C=C/c2ccc(C(F)(F)F)nc2SCCC)cc(F)c1NS(C)(=O)=O [Example 185, N-(3-Ethynyl-5-fluoro-4-methanesulfonylamino-benzyl)-3-(2-propylthio-6-trifluoromethyl-pyridin-3-yl)-acrylamide]
280	C=Cc1cc(CNC(=O)/C=C/c2ccc(C(C)(C)C)nc2)cc(F)c1NS(C)(=O)=O [Example 10, 3-(6-tert-Butyl-pyridin-3-yl)-N-(3-fluoro-4-methanesulfonylamino-5-vinyl-benzyl)-acrylamide]
270	C[C@@H](NC(=O)/C=C/c1ccc(C(F)(F)F)nc1-c1cccc(F)c1)c1ccc(NS(C)(=O)=O)c(F)c1 [Example 181, (R)—N-[1-(3-Fluoro-4-methanesulfonylamino-phenyl)-ethyl]-3-[2-(3-fluoro-phenyl)-6-trifluoromethyl-pyridin-3-yl]-acrylamide]
260	C#Cc1cc(CNC(=O)/C=C/c2ccc(C(F)(F)F)nc2N2CCCC2)cc(F)c1NS(C)(=O)=O [Example 62, N-(3-Ethynyl-5-fluoro-4-methanesulfonylamino-benzyl)-3-(2-pyrrolidin-1-yl-6-trifluoromethyl-pyridin-3-yl)-acrylamide]
170	COCCNc1nc(C(F)(F)F)ccc1/C=C/C(=O)NCc1cc(F)c(NS(C)(=O)=O)c(F)c1 [Example 204, N-(3,5-Difluoro-4-methanesulfonylamino-benzyl)-3-[2-(2-methoxy-ethylamino)-6-trifluoromethyl-pyridin-3-yl]-acrylamide]
160	C#Cc1cc(CNC(=O)/C=C/c2ccc(C(F)(F)F)nc2NCCCC)cc(F)c1NS(C)(=O)=O [Example 72, 3-(2-Butylamino-6-trifluoromethyl-pyridin-3-yl)-N-(3-ethynyl-5-fluoro-4-methanesulfonylamino-benzyl)-acrylamide]
93	CCC(C)Nc1nc(C(F)(F)F)ccc1/C=C/C(=O)NCc1ccc(NS(C)(=O)=O)c(F)c1 (centres unmarked) [Example 123, 3-(2-sec-Butylamino-6-trifluoromethyl-pyridin-3-yl)-N-(3-fluoro-4-methanesulfonylamino-benzyl)-acrylamide]
76	CC(C)Nc1nc(C(F)(F)F)ccc1/C=C/C(=O)NCc1cc(F)c(NS(C)(=O)=O)c(C#N)c1 [Example 122, N-(3-Cyano-5-fluoro-4-methanesulfonylamino-benzyl)-3-(2-isopropylamino-6-trifluoromethyl-pyridin-3-yl)-acrylamide]
69	C#Cc1cc(CNC(=O)/C=C/c2ccc(C(F)(F)F)nc2N(C)c2ccccc2)cc(F)c1NS(C)(=O)=O [Example 166, N-(3-Ethynyl-5-fluoro-4-methanesulfonylamino-benzyl)-3-[2-(methyl-phenylamino)-6-trifluoromethyl-pyridin-3-yl]-acrylamide]
67	CCNc1nc(C(F)(F)F)ccc1/C=C/C(=O)N[C@H](C)c1cc(F)c(NS(C)(=O)=O)c(F)c1 [Example 244, (R)—N-[1-(3,5-Difluoro-4-methanesulfonylamino-phenyl)-ethyl]-3-(2-ethylamino-6-trifluoromethyl-pyridin-3-yl)-acrylamide]
45	CCCCNc1nc(C(F)(F)F)ccc1/C=C/C(=O)N[C@H](C)c1cc(F)c(NS(C)(=O)=O)c(F)c1 [Example 238, (R)-3-(2-Butylamino-6-trifluoromethyl-pyridin-3-yl)-N-[(1R)-(3,5-difluoro-4-methanesulfonylamino-phenyl)-ethyl]-acrylamide]
41	CCC(C)c1nc(C(F)(F)F)ccc1/C=C/C(=O)N[C@H](C)c1ccc(NS(C)(=O)=O)c(F)c1 (stereo partly drawn) [Example 243, (R)-3-(2-sec-Butyl-6-trifluoromethyl-pyridin-3-yl)-N-[1-(3-fluoro-4-methanesulfonylamino-phenyl)-ethyl]-acrylamide]
35	C#Cc1cc(CNC(=O)/C=C/c2ccc(C(F)(F)F)nc2CCc2ccccc2)cc(F)c1NS(C)(=O)=O [Example 142, N-(3-Ethynyl-5-fluoro-4-methanesulfonylamino-benzyl)-3-(2-phenethyl-6-trifluoromethyl-pyridin-3-yl)-acrylamide]
13	CCNc1nc(C(F)(F)F)ccc1/C=C/C(=O)NCc1ccc(NS(C)(=O)=O)c(C)c1 [Example 247, N-(4-methanesulfonylamino-3-methyl-benzyl)-3-(2-ethylamino-6-trifluoromethyl)-pyridin-3-yl-acrylamide]
